ChEMBL document CHEMBL1811847, “Initial efforts toward the optimization of arylomycins for antibiotic activity” (2011)
In brackets after ≈: the same amount, converted by molar mass.

What was measured:
Type in all cases: functional
Pseudomonas aeruginosa [1] = experiment: Antibacterial activity against wild-type Pseudomonas aeruginosa PAO1 after 24 hrs by CLSI broth microdilution method; conditions: PAO1, 24 h
Staphylococcus aureus [2] = experiment: Antibacterial activity against wild-type Staphylococcus aureus NCTC 8325 after 24 hrs by CLSI broth microdilution method; conditions: NCTC 8325, 24 h
Escherichia coli [3] = experiment: Antibacterial activity against Escherichia coli MG1655 after 24 hrs by CLSI broth microdilution method; conditions: MG1655, 24 h
Escherichia coli [4] = experiment: Antibacterial activity against Escherichia coli MG1655 harboring lepB P84L mutant after 24 hrs by CLSI broth microdilution method; conditions: MG1655, 24 h
Staphylococcus aureus [5] = experiment: Antibacterial activity against Staphylococcus aureus NCTC 8325 harboring lepB P29S mutant after 24 hrs by CLSI broth microdilution method; conditions: NCTC 8325, 24 h
[6] = system: Staphylococcus epidermidis; experiment: Antibacterial activity against Staphylococcus epidermidis RP62A harboring spsB S29P mutant after 24 hrs by CLSI broth microdilution method
[7] = system: Staphylococcus epidermidis; experiment: Antibacterial activity against wild-type Staphylococcus epidermidis RP62A after 24 hrs by CLSI broth microdilution method
Pseudomonas aeruginosa [8] = experiment: Antibacterial activity against Pseudomonas aeruginosa PAO1 harboring lepB P84L mutant after 24 hrs by CLSI broth microdilution method; conditions: PAO1, 24 h
Staphylococcus aureus [9] = experiment: Antibacterial activity against methicillin-resistant Staphylococcus aureus isolate USA300

Structure (SMILES)	MIC (Pseudomonas aeruginosa [1])	MIC (Staphylococcus aureus [2])	MIC (Escherichia coli [3])	MIC (Escherichia coli [4])	MIC (Staphylococcus aureus [5])	MIC [6]	MIC [7]	MIC (Pseudomonas aeruginosa [8])	MIC (Staphylococcus aureus [9])
CCCCCCCC(=O)N(C)[C@H](CO)C(=O)N[C@H](C)C(=O)NCC(=O)N(C)[C@@H]1C(=O)N[C@@H](C)C(=O)N[C@H](C(=O)O)Cc2ccc(O)c(c2)-c2cc1ccc2O	> 64 µg/mL	> 64 µg/mL	> 64 µg/mL	–	–	–	–	–	–
CCCCCCCCc1ccc(-c2ccc(C(=O)N(C)[C@H](CO)C(=O)N[C@H](C)C(=O)NCC(=O)N(C)[C@@H]3C(=O)N[C@@H](C)C(=O)N[C@H](C(=O)O)Cc4ccc(O)c(c4)-c4cc3ccc4O)cc2)cc1	> 64 µg/mL	16 µg/mL (≈ 17.1 µM)	> 64 µg/mL	1 µg/mL (≈ 1.07 µM)	8 µg/mL (≈ 8.56 µM)	16 µg/mL (≈ 17.1 µM)	1 µg/mL (≈ 1.07 µM)	–	–
CCCCCCCCCCCC(=O)N(C)[C@H](CO)C(=O)N[C@H](C)C(=O)NCC(=O)N(C)[C@@H]1C(=O)N[C@@H](C)C(=O)N[C@H](C(=O)O)Cc2ccc(O)c(c2)-c2cc1ccc2O	> 64 µg/mL	> 64 µg/mL	> 64 µg/mL	–	–	> 64 µg/mL	–	–	–
CCCCCCCCCC(=O)N(C)[C@H](CO)C(=O)N[C@H](C)C(=O)NCC(=O)N(C)[C@@H]1C(=O)N[C@@H](C)C(=O)N[C@H](C(=O)O)Cc2ccc(O)c(c2)-c2cc1ccc2O	> 64 µg/mL	> 64 µg/mL	> 64 µg/mL	–	–	–	–	–	–
CCCCCCCCCCCCCCCCCC(=O)N(C)[C@H](CO)C(=O)N[C@H](C)C(=O)NCC(=O)N(C)[C@@H]1C(=O)N[C@@H](C)C(=O)N[C@H](C(=O)O)Cc2ccc(O)c(c2)-c2cc1ccc2O	> 64 µg/mL	> 64 µg/mL	> 64 µg/mL	–	–	–	–	–	–
C[C@@H]1NC(=O)[C@@H](N(C)C(=O)CNC(=O)[C@@H](C)NC(=O)[C@@H](CO)N(C)C(=O)Cc2ccc3ccccc3c2)c2ccc(O)c(c2)-c2cc(ccc2O)C[C@@H](C(=O)O)NC1=O	> 64 µg/mL	> 64 µg/mL	> 64 µg/mL	–	–	–	> 64 µg/mL	–	–
C[C@@H]1NC(=O)[C@@H](N(C)C(=O)CNC(=O)[C@@H](C)NC(=O)[C@@H](CO)N(C)C(=O)Cc2ccc(-c3ccccc3)cc2)c2ccc(O)c(c2)-c2cc(ccc2O)C[C@@H](C(=O)O)NC1=O	> 64 µg/mL	> 64 µg/mL	> 64 µg/mL	–	–	> 64 µg/mL	32 µg/mL (≈ 38.2 µM)	–	–
C[C@@H]1NC(=O)[C@@H](N(C)C(=O)CNC(=O)[C@@H](C)NC(=O)[C@@H](CO)N(C)C(=O)c2ccc(-c3ccccc3)cc2)c2ccc(O)c(c2)-c2cc(ccc2O)C[C@@H](C(=O)O)NC1=O	> 64 µg/mL	> 64 µg/mL	> 64 µg/mL	–	–	> 64 µg/mL	64 µg/mL (≈ 77.8 µM)	–	–
CCc1ccc(-c2ccc(C(=O)N(C)[C@H](CO)C(=O)N[C@H](C)C(=O)NCC(=O)N(C)[C@@H]3C(=O)N[C@@H](C)C(=O)N[C@H](C(=O)O)Cc4ccc(O)c(c4)-c4cc3ccc4O)cc2)cc1	> 64 µg/mL	> 64 µg/mL	> 64 µg/mL	16 µg/mL (≈ 18.8 µM)	64 µg/mL (≈ 75.2 µM)	> 64 µg/mL	8 µg/mL (≈ 9.4 µM)	–	–
CCCCc1ccc(-c2ccc(C(=O)N(C)[C@H](CO)C(=O)N[C@H](C)C(=O)NCC(=O)N(C)[C@@H]3C(=O)N[C@@H](C)C(=O)N[C@H](C(=O)O)Cc4ccc(O)c(c4)-c4cc3ccc4O)cc2)cc1	> 64 µg/mL	> 64 µg/mL	> 64 µg/mL	4 µg/mL (≈ 4.55 µM)	16 µg/mL (≈ 18.2 µM)	> 64 µg/mL	1 µg/mL (≈ 1.14 µM)	–	–
CCCCCCc1ccc(-c2ccc(C(=O)N(C)[C@H](CO)C(=O)N[C@H](C)C(=O)NCC(=O)N(C)[C@@H]3C(=O)N[C@@H](C)C(=O)N[C@H](C(=O)O)Cc4ccc(O)c(c4)-c4cc3ccc4O)cc2)cc1	> 64 µg/mL	64 µg/mL (≈ 70.6 µM)	> 64 µg/mL	1 µg/mL (≈ 1.1 µM)	8 µg/mL (≈ 8.82 µM)	32 µg/mL (≈ 35.3 µM)	0.5 µg/mL (≈ 0.551 µM)	–	–
CCCCCCc1ccc(C(=O)N(C)[C@H](CO)C(=O)N[C@H](C)C(=O)NCC(=O)N(C)[C@@H]2C(=O)N[C@@H](C)C(=O)N[C@H](C(=O)O)Cc3ccc(O)c(c3)-c3cc2ccc3O)cc1	> 64 µg/mL	> 64 µg/mL	> 64 µg/mL	32 µg/mL (≈ 38.5 µM)	64 µg/mL (≈ 77 µM)	> 64 µg/mL	8 µg/mL (≈ 9.63 µM)	–	–
CCCCCCCCc1ccc(C(=O)N(C)[C@H](CO)C(=O)N[C@H](C)C(=O)NCC(=O)N(C)[C@@H]2C(=O)N[C@@H](C)C(=O)N[C@H](C(=O)O)Cc3ccc(O)c(c3)-c3cc2ccc3O)cc1	> 64 µg/mL	> 64 µg/mL	> 64 µg/mL	8 µg/mL (≈ 9.31 µM)	8 µg/mL (≈ 9.31 µM)	> 64 µg/mL	1 µg/mL (≈ 1.16 µM)	64 µg/mL (≈ 74.5 µM)	–
CCCCCCCCCCc1ccc(C(=O)N(C)[C@H](CO)C(=O)N[C@H](C)C(=O)NCC(=O)N(C)[C@@H]2C(=O)N[C@@H](C)C(=O)N[C@H](C(=O)O)Cc3ccc(O)c(c3)-c3cc2ccc3O)cc1	> 64 µg/mL	32 µg/mL (≈ 36.1 µM)	> 64 µg/mL	2 µg/mL (≈ 2.25 µM)	4 µg/mL (≈ 4.51 µM)	16 µg/mL (≈ 18 µM)	0.5 µg/mL (≈ 0.564 µM)	16 µg/mL (≈ 18 µM)	–
CCCCCCCCCCCCCCCC(=O)N[C@@H](CO)C(=O)N[C@@H](C)C(=O)NCC(=O)N(C)[C@@H]1C(=O)N[C@@H](C)C(=O)N[C@H](C(=O)O)Cc2ccc(O)c(c2)-c2cc1ccc2O	> 64 µg/mL	> 64 µg/mL	> 64 µg/mL	–	–	–	–	–	–
CCCCCCCCCCCCCCCC(=O)N[C@@H](CO)C(=O)N(C)[C@@H](C)C(=O)N(C)CC(=O)N(C)[C@@H]1C(=O)N[C@@H](C)C(=O)N[C@H](C(=O)O)Cc2ccc(O)c(c2)-c2cc1ccc2O	> 64 µg/mL	> 64 µg/mL	> 64 µg/mL	–	–	–	> 64 µg/mL	–	–
CCCCCCCCCCCCCCCC(=O)N1C[C@@H](O)C[C@H]1C(=O)N[C@@H](C)C(=O)NCC(=O)N(C)[C@@H]1C(=O)N[C@@H](C)C(=O)N[C@H](C(=O)O)Cc2ccc(O)c(c2)-c2cc1ccc2O	> 64 µg/mL	> 64 µg/mL	> 64 µg/mL	–	4 µg/mL (≈ 4.48 µM)	8 µg/mL (≈ 8.96 µM)	4 µg/mL (≈ 4.48 µM)	–	–
CCCCCCCCCCCCCCCC(=O)N(C)[C@@H](CO)CC(=O)N[C@@H](C)C(=O)NCC(=O)N(C)[C@@H]1C(=O)N[C@@H](C)C(=O)N[C@H](C(=O)O)Cc2ccc(O)c(c2)-c2cc1ccc2O	> 64 µg/mL	64 µg/mL (≈ 71.5 µM)	> 64 µg/mL	–	16 µg/mL (≈ 17.9 µM)	8 µg/mL (≈ 8.94 µM)	4 µg/mL (≈ 4.47 µM)	–	–
CCCCCCCCCCCCCCCC(=O)N(C)[C@@H](CO)CCC(=O)N[C@@H](C)C(=O)NCC(=O)N(C)[C@@H]1C(=O)N[C@@H](C)C(=O)N[C@H](C(=O)O)Cc2ccc(O)c(c2)-c2cc1ccc2O	> 64 µg/mL	16 µg/mL (≈ 17.6 µM)	> 64 µg/mL	–	4 µg/mL (≈ 4.4 µM)	16 µg/mL (≈ 17.6 µM)	8 µg/mL (≈ 8.8 µM)	–	–
CCCCCCCCCCCCCCC(C)C(=O)N[C@@H](C)C(=O)NCC(=O)N(C)[C@@H]1C(=O)N[C@@H](C)C(=O)N[C@H](C(=O)O)Cc2ccc(O)c(c2)-c2cc1ccc2O (mixture of isomers)	> 64 µg/mL	> 64 µg/mL	> 64 µg/mL	–	–	> 64 µg/mL	8 µg/mL	–	–
CCCCCCCCCCCCCCCC(=O)N(C)[C@@H](CO)C(=O)NCC(C)C(=O)NCC(=O)N(C)[C@@H]1C(=O)N[C@@H](C)C(=O)N[C@H](C(=O)O)Cc2ccc(O)c(c2)-c2cc1ccc2O (mixture of isomers)	> 64 µg/mL	> 64 µg/mL	> 64 µg/mL	8 µg/mL	–	16 µg/mL	8 µg/mL	16 µg/mL	–
CCCCCCCCCCCCCCCC(=O)N(C)[C@@H](CO)C(=O)NCCC(C)C(=O)NCC(=O)N(C)[C@@H]1C(=O)N[C@@H](C)C(=O)N[C@H](C(=O)O)Cc2ccc(O)c(c2)-c2cc1ccc2O (mixture of isomers)	> 64 µg/mL	> 64 µg/mL	> 64 µg/mL	–	8 µg/mL	8 µg/mL	8 µg/mL	–	–
CC(C)CCCCCCCCC(=O)N(C)[C@H](CO)C(=O)N[C@H](C)C(=O)NCC(=O)N(C)[C@@H]1C(=O)N[C@@H](C)C(=O)N[C@H](C(=O)O)Cc2ccc(O)c(c2)-c2cc1ccc2O [ARYLOMYCIN A2]	–	–	–	–	–	–	–	–	16 µg/mL (≈ 19.4 µM)
CCCCCCCCCCCCCCCC(=O)N(C)[C@H](CO)C(=O)N[C@H](C)C(=O)NCC(=O)N(C)[C@@H]1C(=O)N[C@@H](C)C(=O)N[C@H](C(=O)O)Cc2ccc(O)c(c2)-c2cc1ccc2O [ARYLOMYCIN C16]	> 64 µg/mL	> 64 µg/mL	> 64 µg/mL	–	–	–	0.5 µg/mL (≈ 0.567 µM)	8 µg/mL (≈ 9.08 µM)	16 µg/mL (≈ 18.2 µM)
